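Method: 48-hour compound exposure of cells in 96-well plates, five concentrations, linear interpolation of endpoints. The concentration for 50% growth inhibition is given as GI50.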 Active and inactive are the calls of the source. No stated cut-off is given here; in the data, active = GI50 up to about 1.1 µM and inactive = higher.

1 compound from ChEMBL document CHEMBL1201862, “PubChem BioAssay data set” (2004) can be followed below.

Test systems include OVCAR-8; U-251; MDA-MB-435; Malme-3M; MDA-N; NCI-H226; LOX IMVI; PC-3; OVCAR-3; HOP-92; A549; ACHN; HT-29; SNB-75; EKVX; OVCAR-5; HOP-62; NCI-H460; TK-10; SK-MEL-28.
Common to all, as to test: NCI tumour cell line growth inhibition, 48 h

In the case of `COc1cc([C@@H]2c3[nH]c4ccccc4c3C(Nc3ccc([N+](=O)[O-])cc3)[C@H]3COC(=O)N23)cc(OC)c1O` (stereo not given in full), the GI50 with OVCAR-8 was 285 nM (active); with U-251, 147 nM (active); in the assay on MDA-MB-435 it was 505 nM (active); in the assay on Malme-3M it was 161 nM (active); in the assay on MDA-N, 875 nM (active); with NCI-H226 it was 138 nM (active). Also, the GI50 with LOX IMVI is 82.2 nM (active); in the assay on PC-3, 698 nM (active); with OVCAR-3 it was 382 nM (active); in the assay on HOP-92, 229 nM (active); in the assay on A549, 53.1 nM (active); in the assay with ACHN, 118 nM (active). For the same compound, the GI50 is 228 nM (active) in the assay with HT-29; 175 nM (active) in the assay with SNB-75; 1780 nM (inactive) in the assay on EKVX; 369 nM (active) in the assay on OVCAR-5; 87.3 nM (active) in the assay on HOP-62; < 18.1 nM (active) in the assay with NCI-H460. Also, the GI50 with TK-10 was 446 nM (active); with SK-MEL-28, 291 nM (active).
